Among the data in publication PMC10550821, “Cryo-EM structures reveal native GABAA receptor assemblies and pharmacology” (Nature, 2023) are Ki and Kd values, retold here.

In experiment [1] the target is T1, GABAA receptor α1 subunit (native α1*-β2-α1-β2*-γ2 nα1-GABAAR) (Mus musculus, UniProt P22723+P62812).
T1 construct: gene Gabra1; main assembly alpha1/beta2/gamma2
Put plainly: cryo-EM structure; competitive [3H]flunitrazepam scintillation proximity assay. The format is binding.

The target in experiment [2] is T2, GABAA receptor α1 subunit (native α1-containing receptors, nα1-GABAARs) (Mus musculus, UniProt P22723+P62812).
T2 construct: gene Gabra1; native receptor ensemble purified from mouse brain (cerebellum excluded) in nanodiscs; with GABAA receptor γ2 subunit (Gabrg2); β2 subunit (Gabrb2) in the main assembly
Nature of the experiment: radioligand binding, scintillation proximity assay. On the technique in general: SPA uses beads or plates that emit light when radiolabelled molecules are held near them.

The target of experiment [3] is T3, GABAA receptor α1 subunit, as it stood in the measurement of the Kd of 8E3-GFP Fab (sample not stated) (Mus musculus (assumed; mature rat chain …, UniProt P62812).
T3 construct: GABAA receptor subunit alpha-1; the Kd may come from such a sample
Nature of the experiment: not stated; dissociation constant of 8E3-GFP Fab, printed with a pointer to Extended Data Fig. 1; method and sample not told.

`Cc1ccc(-c2nc3ccc(C)cn3c2CC(=O)N(C)C)cc1` [ZOL, zolpidem] displayed an inhibition constant (Ki) in experiment [1] of 22.9 ± 2.7 nM.
`CN1C(=O)CN=C(c2ccccc2F)c2cc([N+](=O)[O-])ccc21` [flunitrazepam] yielded a Kd in experiment [2] of 6 ± 0.2 nM.

B1: 8E3-GFP Fab (α1 subunit-specific Fab fragment of mouse monoclonal antibody 8E3, with 3C site, EGFP and twin-strep II tag on the heavy chain) (Fab, V domains shown)
VH: EIQLQQSGPELVKPGTSVKVSCKASGYSFTDYNMYWVKQSHGKSLEWIGYIDPYNADTTYNREFKGKATLTVDKSSSTAFMHLNSLTSEDSAVYYCARKRNNFYFDYWGQGTPLTVSS
VL: YIVMTQSPKSMSMSLGERVTLSCRASEYVGSYVSWYQQKPEQSPKLLIYGASNRYTGVPDRFAGSGSATDFTLTITSVQAEDLADYHCGQTYNYPTFGGGTKLEIK
notes: Fab heavy chain of 8E3; Fab light chain of 8E3; Both chains were expressed with an N-terminal GP64 signal peptide; also called α1-specific Fab; source: Sf9, recombinant baculovirus, secreted into the supernatant, purified (streptactin column); not shown: EGFP, C-terminal, kept; twin-strep II, C-terminal, kept
Consider B1, for which, in experiment [3], the Kd worked out at 0.5 nM.

A word on the Ki: it is a measure of affinity in units of concentration, obtained from inhibition or displacement. Read a low Ki as a stronger hold on the target. One may read the Kd as the free concentration of one partner at which half of the binding sites on the other are occupied at equilibrium, for simple one-to-one binding. A lower Kd goes with a tighter complex.
